Measured values from patent US8846698B2, “Pyrrolo[2,3-d]pyrimidine tropomysin-related kinase inhibitors” (Pfizer Limited, priority 2011, dated 2014).

The molecules below were run against TRKA (Homo sapiens (Human), UniProt P04629) (assay: Isolated TRK enzyme assay (HTRF KinEASE-TK), TRKA). Settings: read-out: Trka enzyme (IC50).
Format: biochemical

Sequence of TRKA (P04629 441-796): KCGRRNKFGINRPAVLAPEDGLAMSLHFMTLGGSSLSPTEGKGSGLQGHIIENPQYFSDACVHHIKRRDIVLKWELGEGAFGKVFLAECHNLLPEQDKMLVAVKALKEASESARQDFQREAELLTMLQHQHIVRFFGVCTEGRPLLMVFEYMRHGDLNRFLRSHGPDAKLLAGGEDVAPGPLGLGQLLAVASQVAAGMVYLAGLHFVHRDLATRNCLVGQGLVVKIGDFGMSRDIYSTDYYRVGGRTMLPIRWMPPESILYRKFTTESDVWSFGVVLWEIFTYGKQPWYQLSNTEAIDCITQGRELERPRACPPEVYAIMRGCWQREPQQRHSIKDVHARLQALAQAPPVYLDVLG

Row | Compound | IC50 [µM]
1 | CC(C)n1cc(C(=O)c2cncc(NC(=O)Cc3c[nH]c4nccnc34)c2)c2cncnc21 [Example 159, N-{5-[(7-isopropyl-7H-pyrrolo[2,3-d]pyrimidin-5-yl)carbonyl]pyridin-3-yl}-2-(5H-pyrrolo[2,3-b]pyrazin-7-yl)acetamide] | 0.234
2 | Cc1cn(CC(=O)Nc2cncc(C(=O)c3cn(C(C)C)c4ncncc34)c2)nn1 [Example 162, N-{5-[(7-isopropyl-7H-pyrrolo[2,3-d]pyrimidin-5-yl)carbonyl]pyridin-3-yl}-2-(4-methyl-1H-1,2,3-triazol-1-yl)acetamide] | 0.324
3 | CSc1ncc(CC(=O)Nc2cncc(C(=O)c3cn(C(C)C)c4ncncc34)c2)cn1 [Example 164, N-{5-[(7-isopropyl-7H-pyrrolo[2,3-d]pyrimidin-5-yl)carbonyl]pyridin-3-yl}-2-[2-(methylthio)pyrimidin-5-yl]acetamide] | 0.133
4 | CC(C)n1cc(C(=O)c2cncc(NC(=O)Cc3ncccn3)c2)c2cncnc21 [Example 165, N-{5-[(7-isopropyl-7H-pyrrolo[2,3-d]pyrimidin-5-yl)carbonyl]pyridin-3-yl}-2-pyrimidin-2-ylacetamide] | 3.4
5 | Cn1cc(C(=O)c2cncc(NC(=O)Cc3cc(F)ccc3C(F)(F)F)c2)c2cncnc21 [Example 167, 2-[5-Fluoro-2-(trifluoromethyl)phenyl]-N-{5-[(7-methyl-7H-pyrrolo[2,3-d]pyrimidin-5-yl)carbonyl]pyridin-3-yl}acetamide] | 3.47
6 | Cc1cccc(CC(=O)Nc2cncc(C(=O)c3cn(C)c4ncncc34)c2)c1 [Example 168, 2-(3-methylphenyl)-N-{5-[(7-methyl-7H-pyrrolo[2,3-d]pyrimidin-5-yl)carbonyl]pyridin-3-yl}acetamide] | 0.702
7 | Cn1cc(C(=O)c2cncc(NC(=O)Cc3ccccc3C(F)(F)F)c2)c2cncnc21 [Example 169, N-{5-[(7-methyl-7H-pyrrolo[2,3-d]pyrimidin-5-yl)carbonyl]pyridin-3-yl}-2-[2-(trifluoromethyl)phenyl]acetamide] | 3.1
8 | Cn1cc(C(=O)c2cncc(NC(=O)Cc3cc(F)cc(F)c3)c2)c2cncnc21 [Example 170, 2-(3,5-difluorophenyl)-N-{5-[(7-methyl-7H-pyrrolo[2,3-d]pyrimidin-5-yl)carbonyl]pyridin-3-yl}acetamide] | 3.1
9 | Cn1cc(C(=O)c2cncc(NC(=O)Cc3c(F)ccc(F)c3F)c2)c2cncnc21 [Example 172, N-{5-[(7-methyl-7H-pyrrolo[2,3-d]pyrimidin-5-yl)carbonyl]pyridin-3-yl}-2-(2,3,6-trifluorophenyl)acetamide] | 3.84
10 | Cn1cc(C(=O)c2cncc(NC(=O)Cc3ccc(C(F)(F)F)c(F)c3)c2)c2cncnc21 [Example 174, 2-[3-fluoro-4-(trifluoromethyl)phenyl]-N-{5-[(7-methyl-7H-pyrrolo[2,3-d]pyrimidin-5-yl)carbonyl]pyridin-3-yl}acetamide] | 0.21
11 | Cc1ccc2ccc(CC(=O)Nc3cncc(C(=O)c4cn(C)c5ncncc45)c3)cc2n1 [Example 178, N-{5-[(7-methyl-7H-pyrrolo[2,3-d]pyrimidin-5-yl)carbonyl]pyridin-3-yl}-2-(2-methylquinolin-7-yl)acetamide] | 3.1
12 | Cn1cc(C(=O)c2cncc(NC(=O)Cc3ccccc3)c2)c2cncnc21 [Example 179, N-{5-[(7-methyl-7H-pyrrolo[2,3-d]pyrimidin-5-yl)carbonyl]pyridin-3-yl}-2-phenylacetamide] | 3.08
13 | Cn1cc(C(=O)c2cncc(NC(=O)Cc3c(F)cccc3Cl)c2)c2cncnc21 [Example 180, 2-(2-chloro-6-fluorophenyl)-N-{5-[(7-methyl-7H-pyrrolo[2,3-d]pyrimidin-5-yl)carbonyl]pyridin-3-yl}acetamide] | 3.1
14 | COc1ccc(CC(=O)Nc2cncc(C(=O)c3cn(C)c4ncncc34)c2)cc1 [Example 181, 2-(4-methoxyphenyl)-N-{5-[(7-methyl-7H-pyrrolo[2,3-d]pyrimidin-5-yl)carbonyl]pyridin-3-yl}acetamide] | 3.1
15 | Cn1cc(C(=O)c2cncc(NC(=O)Cc3ccc(SC(F)(F)F)cc3)c2)c2cncnc21 [Example 182, N-{5-[(7-methyl-7H-pyrrolo[2,3-d]pyrimidin-5-yl)carbonyl]pyridin-3-yl}-2-{4-[(trifluoromethyl)thio]phenyl}acetamide] | 0.543
16 | Cn1cc(C(=O)c2cncc(NC(=O)Cc3cccc(SC(F)(F)F)c3)c2)c2cncnc21 [Example 185, N-{5-[(7-methyl-7H-pyrrolo[2,3-d]pyrimidin-5-yl)carbonyl]pyridin-3-yl}-2-{3-[(trifluoromethyl)thio]phenyl}acetamide] | 0.0674
17 | Cc1ccc(CC(=O)Nc2cncc(C(=O)c3cn(C)c4ncncc34)c2)cc1 [Example 186, 2-(4-methylphenyl)-N-{5-[(7-methyl-7H-pyrrolo[2,3-d]pyrimidin-5-yl)carbonyl]pyridin-3-yl}acetamide] | 0.719
18 | Cn1cc(C(=O)c2cncc(NC(=O)Cc3cc(F)c(F)c(F)c3)c2)c2cncnc21 [Example 187, N-{5-[(7-methyl-7H-pyrrolo[2,3-d]pyrimidin-5-yl)carbonyl]pyridin-3-yl}-2-(3,4,5-trifluorophenyl)acetamide] | 2.63
19 | Cc1ccc(CC(=O)Nc2cncc(C(=O)c3cn(C)c4ncncc34)c2)c(C)c1 [Example 188, 2-(2,4-dimethylphenyl)-N-{5-[(7-methyl-7H-pyrrolo[2,3-d]pyrimidin-5-yl)carbonyl]pyridin-3-yl}acetamide] | 0.277
20 | Cn1cc(C(=O)c2cncc(NC(=O)Cc3ccc4c(c3)CCO4)c2)c2cncnc21 [Example 189, 2-(2,3-dihydro-1-benzofuran-5-yl)-N-{5-[(7-methyl-7H-pyrrolo[2,3-d]pyrimidin-5-yl)carbonyl]pyridin-3-yl}acetamide] | 0.836
21 | Cn1cc(C(=O)c2cncc(NC(=O)Cc3ccc(F)cc3F)c2)c2cncnc21 [Example 191, 2-(2,4-difluorophenyl)-N-{5-[(7-methyl-7H-pyrrolo[2,3-d]pyrimidin-5-yl)carbonyl]pyridin-3-yl}acetamide] | 0.873
22 | Cn1cc(C(=O)c2cncc(NC(=O)Cc3cccc(C(F)(F)F)c3F)c2)c2cncnc21 [Example 192, 2-[2-fluoro-3-(trifluoromethyl)phenyl]-N-{5-[(7-methyl-7H-pyrrolo[2,3-d]pyrimidin-5-yl)carbonyl]pyridin-3-yl}acetamide] | 0.173
23 | Cn1cc(C(=O)c2cncc(NC(=O)Cc3c(F)cccc3F)c2)c2cncnc21 [Example 193, 2-(2,6-difluorophenyl)-N-{5-[(7-methyl-7H-pyrrolo[2,3-d]pyrimidin-5-yl)carbonyl]pyridin-3-yl}acetamide] | 3.57

Results, then the molecule that gave them:

Row | IC50 [µM] | Compound
24 | 0.23 | CC(C)n1cc(C(=O)c2cncc(NC(=O)Cc3c[nH]c4ccc(O)cc34)c2)c2cncnc21 [Example 158, 2-(5-hydroxy-1H-indol-3-yl)-N-{5-[(7-isopropyl-7H-pyrrolo[2,3-d]pyrimidin-5-yl)carbonyl]pyridin-3-yl}acetamide]
25 | 1.08 | Cc1cc2ncn(CC(=O)Nc3cncc(C(=O)c4cn(C(C)C)c5ncncc45)c3)c2cc1C [Example 160, 2-(5,6-dimethyl-1H-benzimidazol-1-yl)-N-{5-[(7-isopropyl-7H-pyrrolo[2,3-d]pyrimidin-5-yl)carbonyl]pyridin-3-yl}acetamide]
26 | 6.27 | CC(C)n1cc(C(=O)c2cncc(NC(=O)Cn3cc(-c4ccccn4)nn3)c2)c2cncnc21 [Example 161, N-{5-[(7-isopropyl-7H-pyrrolo[2,3-d]pyrimidin-5-yl)carbonyl]pyridin-3-yl}-2-(4-pyridin-2-yl-1H-1,2,3-triazol-1-yl)acetamide]
27 | 1.84 | Cc1[nH]nc(-c2ccccc2)c1CC(=O)Nc1cncc(C(=O)c2cn(C(C)C)c3ncncc23)c1 [Example 163, N-{5-[(7-isopropyl-7H-pyrrolo[2,3-d]pyrimidin-5-yl)carbonyl]pyridin-3-yl}-2-(5-methyl-3-phenyl-1H-pyrazol-4-yl)acetamide]
28 | 1.28 | Cn1cc(C(=O)c2cncc(NC(=O)Cc3c(F)cc(F)cc3F)c2)c2cncnc21 [Example 171, N-{5-[(7-methyl-7H-pyrrolo[2,3-d]pyrimidin-5-yl)carbonyl]pyridin-3-yl}-2-(2,4,6-trifluorophenyl)acetamide]
29 | 9.81 | Cn1cc(C(=O)c2cncc(NC(=O)Cc3ccc(S(C)(=O)=O)cc3)c2)c2cncnc21 [Example 173, N-{5-[(7-methyl-7H-pyrrolo[2,3-d]pyrimidin-5-yl)carbonyl]pyridin-3-yl}-2-[4-(methylsulfonyl)phenyl]acetamide]
30 | 2.59 | COc1cccc(CC(=O)Nc2cncc(C(=O)c3cn(C)c4ncncc34)c2)c1 [Example 175, 2-(3-methoxyphenyl)-N-{5-[(7-methyl-7H-pyrrolo[2,3-d]pyrimidin-5-yl)carbonyl]pyridin-3-yl}acetamide]
31 | 0.165 | Cn1cc(C(=O)c2cncc(NC(=O)Cc3cccc(OC(F)(F)F)c3)c2)c2cncnc21 [Example 176, N-{5-[(7-methyl-7H-pyrrolo[2,3-d]pyrimidin-5-yl)carbonyl]pyridin-3-yl}-2-[3-(trifluoromethoxy)phenyl]acetamide]
32 | 3.1 | Cn1cc(C(=O)c2cncc(NC(=O)Cc3cc(F)cc(F)c3F)c2)c2cncnc21 [Example 177, N-{5-[(7-methyl-7H-pyrrolo[2,3-d]pyrimidin-5-yl)carbonyl]pyridin-3-yl}-2-(2,3,5-trifluorophenyl)acetamide]
33 | 1.85 | Cn1cc(C(=O)c2cncc(NC(=O)Cc3ccc(-c4ccccc4)cc3)c2)c2cncnc21 [Example 183, 2-biphenyl-4-yl-N-{5-[(7-methyl-7H-pyrrolo[2,3-d]pyrimidin-5-yl)carbonyl]pyridin-3-yl}acetamide]
34 | 0.579 | Cn1cc(C(=O)c2cncc(NC(=O)Cc3cc(F)c(F)cc3F)c2)c2cncnc21 [Example 184, N-{5-[(7-methyl-7H-pyrrolo[2,3-d]pyrimidin-5-yl)carbonyl]pyridin-3-yl}-2-(2,4,5-trifluorophenyl)acetamide]
35 | 0.82 | Cn1cc(C(=O)c2cncc(NC(=O)Cc3cc(F)ccc3F)c2)c2cncnc21 [Example 190, 2-(2,5-difluorophenyl)-N-{5-[(7-methyl-7H-pyrrolo[2,3-d]pyrimidin-5-yl)carbonyl]pyridin-3-yl}acetamide]
